Structures are written as SMILES.

This note sets out measurements from patent US20170342064A1, “COMPOUNDS FOR THE TREATMENT OF CANCER” (Bayer Pharma Aktiengesellschaft, priority 2014, published 2017).

Data set [1] in a line: Stability in buffer at pH 7.4. The data set is classed as physicochemical. The following applies: buffer pH 7.4, 37° C., HPLC peak area ratio. Here is the method:
0.3 mg of the test compound are solved in 0.1 ml dimethylsulfoxide and 0.4 ml acetonitrile. For complete dissolution the HPLC vial with the sample solution is sonified for about 20 seconds. Then 1.0 ml of the buffer solution is added, and the sample is again treated in the ultrasonic bath. 90 g of sodium chloride, 13.61 g of potassium dihydrogen phosphate and 83.35 g of 1 M sodium hydroxide solution are made up to 1 litre with Millipore water and then diluted 1:10. 10 μl portions of the sample solution are analysed by HPLC to determine the amount of the test compound over a period of 24 hours at 37° C. The peak areas in percentage are used for quantification. Agilent 1100 with DAD (G1315B), binary pump (G1312A), autosampler (G1329A), column oven (G1316A), thermostat (G1330B); column: Kromasil 100 C18, 250 mm×4 mm, 5 μm; column temperature: 37° C.; eluent A: water+5 ml of perchloric acid/litre, eluent B: acetonitrile. 0 min 98% A, 2% B→0-3.0 min 85% A, 15% B→3.0-8.0 min 50% A, 50% B→8.0-16.0 min 50% A, 50% B→16.0-20.0 min 10% A, 90% B→20.0-21.0 10% A, 90% B→21.0-24.0 min 98% A, 2% B→24.0-25.0 min 98% A, 2% B; flow rate: 1.5 ml/min; UV detection: 210 nm. The ratio of the peak areas (F) at different time points in relation to the peak areas at the starting time are shown in Table 1 for representative examples: […]

A short description of data set [2]: In vitro stability in rat plasma (HPLC detection). The following applies: 37° C., HPLC peak area ratio. It is filed as in vitro ADME, wistar rat. Here is the method:
(§1) 1 mg of test compound is dissolved in 1.25 ml dimethylsulfoxide. Then 1.25 ml water are added. 0.5 ml of this sample solution are mixed with 0.5 ml heparinized and 37° C. warm plasma (wistar rat plasma or human plasma). A first sample (10 μl) is immediately taken for HPLC analysis. In the period up to 4 h after the start of incubation further 10 μl aliquots are taken after 30, 60, 90, 120 and 240 minutes and the amount of the test compound is determined. Agilent 1100 with DAD (G1315A), binary pump (G1312A), autosampler (G1329A), column oven (G1316A), thermostat (G1330B); column: Kromasil 100 C18, 250 mm×4 mm, 5 μm; column temperature: 45° C.; eluent A: water+5 ml of perchloric acid/litre, eluent B: acetonitrile. 0 min 98% A, 2% B→0-3.0 min 85% A, 15% B→3.0-8.0 min 55% A, 45% B→8.0-16.0 min 55% A, 45% B→16.0-20.0 min 10% A, 90% B→20.0-21.0 10% A, 90% B→21.0-24.0 min 98% A, 2% B→24.0-25.0 min 98% A, 2% B; flow rate: 1.5 ml/min; UV detection: 222 nm.

Data set [3] is described as follows: In vitro stability in human plasma (HPLC detection). The data set is classed as in vitro ADME. The following applies: 37° C., HPLC peak area ratio. Here is the method:
as §1

The subject of data set [4] is HeLa human cervical tumor cells. Kind of data set: Proliferation assay (crystal violet), HeLa cells. The data set is classed as cell-based. The note with it: 96 h, 4 days incubation, crystal violet staining, read-out: Inhibition of cell proliferation, cell Line: HeLa IC50. Here is the method:
Cultivated tumor cells (MCF7, hormone dependent human mammary carcinoma cells, ATCC HTB22; NCI-H460, human non-small cell lung carcinoma cells, ATCC HTB-177; DU 145, hormone-independent human prostate carcinoma cells, ATCC HTB-81; HeLa-MaTu, human cervical carcinoma cells, EPO-GmbH, Berlin; HeLa-MaTu-ADR, multidrug-resistant human cervical carcinoma cells, EPO-GmbH, Berlin; HeLa human cervical tumor cells, ATCC CCL-2; B16F10 mouse melanoma cells, ATCC CRL-6475) were plated at a density of 5000 cells/well (MCF7, DU145, HeLa-MaTu-ADR), 3000 cells/well (NCI-H460, HeLa-MaTu, HeLa), or 1000 cells/well (B16F10) in a 96-well multititer plate in 200 μl of their respective growth medium supplemented 10% fetal calf serum. After 24 hours, the cells of one plate (zero-point plate) were stained with crystal violet (see below), while the medium of the other plates was replaced by fresh culture medium (200 μl), to which the test substances were added in various concentrations (0 μM, as well as in the range of 0.01-30 μM; the final concentration of the solvent dimethyl sulfoxide was 0.5%). The cells were incubated for 4 days in the presence of test substances. Cell proliferation was determined by staining the cells with crystal violet: the cells were fixed by adding 20 μl/measuring point of an 11% glutaric aldehyde solution for 15 minutes at room temperature. After three washing cycles of the fixed cells with water, the plates were dried at room temperature. The cells were stained by adding 100 μl/measuring point of a 0.1% crystal violet solution (pH 3.0). After three washing cycles of the stained cells with water, the plates were dried at room temperature. The dye was dissolved by adding 100 μl/measuring point of a 10% acetic acid solution. The extinction was determined by photometry at a wavelength of 595 nm. The change of cell number, in percent, was calculated by normalization of the measured values to the extinction values of the zero-point plate (=0%) and the extinction of the untreated (0 μm) cells (=100%). The IC50 values were determined by means of a 4 parameter fit.
The reference examples described above are characterized by the following IC50 values, determined in a HeLa cell proliferation assay (as described above): […]

In the case of `C[C@@H](C(=O)Nc1ccc(-c2ccn3nc(N(C(=O)OCOC(=O)[C@@H](N)C(C)(C)C)c4ccc(C(=O)N5CC(F)C5)cc4OCC(F)(F)F)nc3c2)cc1)c1ccc(F)cc1.Cl` [Example 1.1, [({4-[(3-fluoroazetidin-1-yl)carbonyl]-2-(2,2,2-trifluoroethoxy)phenyl}[7-(4-{[(2R)-2-(4-fluorophenyl)propanoyl]amino}phenyl)[1,2,4]triazolo[1,5-a]pyridin-2-yl]carbamoyl)oxy]methyl 3-methyl-L-valinate hydrochloride], the “% Test Compound after 24 h [F(t = 24 h) × 100/F(t = 0 h)]” value in data set [1] was determined as 0.0%. In addition, the “% Test Compound after 4 h [F(t = 24 h) × 100/F(t = 0 h)]” value in data set [2] and in data set [3] was 0.0% in each case.

Turning to `C[C@@H](C(=O)Nc1ccc(-c2ccn3nc(Nc4ccc(S(C)(=O)=O)cc4OCC(F)(F)F)nc3c2)cc1)c1ccc(F)cc1` [Reference Example 01.05, (2R)-2-(4-fluorophenyl)-N-[4-(2-{[4-(methylsulfonyl)-2-(2,2,2-trifluoroethoxy)phenyl]amino}[1,2,4]triazolo[1,5-a]pyridin-7-yl)phenyl]propanamide], the IC50 in data set [4] is at most 100 nM.

Turning to `COc1cc(C(=O)N2CC(F)C2)ccc1Nc1nc2cc(-c3ccc(NC(=O)[C@H](C)c4ccc(F)cc4)cc3)ccn2n1` [Reference Example 01.02, (2R)—N-{4-[2-({4-[(3-fluoroazetidin-1-yl)carbonyl]-2-methoxyphenyl}amino)[1,2,4]triazolo[1,5-a]pyridin-7-yl]phenyl}-2-(4-fluorophenyl)propanamide], the IC50 in data set [4] was at most 100 nM.

On to `C[C@@H](C(=O)Nc1ccc(-c2ccn3nc(Nc4ccc(C(=O)N5CC(F)C5)cc4OCC(F)(F)F)nc3c2)cc1)c1ccc(F)cc1` [Reference Example 01.03, (2R)—N-{4-[2-({4-[(3-fluoroazetidin-1-yl)carbonyl]-2-(2,2,2-trifluoroethoxy)phenyl}amino)[1,2,4]triazolo[1,5-a]pyridin-7-yl]phenyl}-2-(4-fluorophenyl)propanamide], for which, in data set [4], the IC50 was at most 100 nM.

Consider `COc1cc(S(C)(=O)=O)ccc1Nc1nc2cc(-c3ccc(NC(=O)[C@H](C)c4ccc(F)cc4)cc3)ccn2n1` [01.01, (2R)-2-(4-fluorophenyl)-N-[4-(2-{[2-methoxy-4-(methylsulfonyl)phenyl]amino}[1,2,4]triazolo[1,5-a]pyridin-7-yl)phenyl]propanamide], for which the IC50 in data set [4] was at most 200 nM.

With `COc1cc(C(=O)N2CCC2)ccc1Nc1nc2cc(-c3ccc(NC(=O)[C@H](C)c4ccc(F)cc4)cc3)ccn2n1` [Reference Example 01.06, (2R)—N-[4-(2-{[4-(azetidin-1-ylcarbonyl)-2-methoxyphenyl]amino}[1,2,4]triazolo[1,5-a]pyridin-7-yl)phenyl]-2-(4-fluorophenyl)propanamide], the IC50 in data set [4] is at most 100 nM.
